From the Kinase Knowledgebase extract (Sharma et al. 2016)

Columns and labels:
[1] = biological target: PIK3CD (Human) (UniProt O00329); test: Assessment of PIK3CD Kinase Activity
[2] = biological target: PIK3CA (human) (UniProt P42336); test: Assessment of PIK3CA Kinase Activity
[3] = biological target: PIK3CB (Human) (UniProt P42338); test: Assessment of PIK3CB Kinase Activity
Chain of PIK3CB (Human) (P42338 whole entry, looked up): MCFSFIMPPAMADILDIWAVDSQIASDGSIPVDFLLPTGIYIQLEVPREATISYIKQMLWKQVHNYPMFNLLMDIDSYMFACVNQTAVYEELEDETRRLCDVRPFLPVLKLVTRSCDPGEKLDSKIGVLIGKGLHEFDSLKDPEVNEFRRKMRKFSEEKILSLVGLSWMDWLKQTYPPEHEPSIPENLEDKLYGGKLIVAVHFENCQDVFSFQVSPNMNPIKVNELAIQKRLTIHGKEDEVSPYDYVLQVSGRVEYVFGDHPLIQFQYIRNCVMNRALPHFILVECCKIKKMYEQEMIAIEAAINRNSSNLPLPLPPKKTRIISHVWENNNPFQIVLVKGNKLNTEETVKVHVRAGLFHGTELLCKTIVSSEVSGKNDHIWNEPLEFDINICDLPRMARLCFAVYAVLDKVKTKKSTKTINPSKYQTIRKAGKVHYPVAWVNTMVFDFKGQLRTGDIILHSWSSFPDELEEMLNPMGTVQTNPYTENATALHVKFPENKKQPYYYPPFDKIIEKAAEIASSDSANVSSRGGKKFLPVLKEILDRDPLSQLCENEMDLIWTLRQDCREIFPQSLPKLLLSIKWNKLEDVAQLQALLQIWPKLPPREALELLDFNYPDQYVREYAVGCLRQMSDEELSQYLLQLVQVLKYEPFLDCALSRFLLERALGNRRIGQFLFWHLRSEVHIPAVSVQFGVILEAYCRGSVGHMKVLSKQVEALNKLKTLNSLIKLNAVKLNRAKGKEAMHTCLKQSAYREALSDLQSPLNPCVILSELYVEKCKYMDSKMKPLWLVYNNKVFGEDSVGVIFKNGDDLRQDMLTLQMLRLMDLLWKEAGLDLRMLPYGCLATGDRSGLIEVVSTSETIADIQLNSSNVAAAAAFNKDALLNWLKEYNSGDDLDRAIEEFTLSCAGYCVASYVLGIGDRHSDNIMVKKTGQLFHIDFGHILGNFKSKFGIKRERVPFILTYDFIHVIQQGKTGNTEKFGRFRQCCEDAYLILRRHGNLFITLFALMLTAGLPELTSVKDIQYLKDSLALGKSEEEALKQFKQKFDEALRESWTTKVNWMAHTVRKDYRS

Chain of PIK3CA (human) (P42336 whole entry, looked up): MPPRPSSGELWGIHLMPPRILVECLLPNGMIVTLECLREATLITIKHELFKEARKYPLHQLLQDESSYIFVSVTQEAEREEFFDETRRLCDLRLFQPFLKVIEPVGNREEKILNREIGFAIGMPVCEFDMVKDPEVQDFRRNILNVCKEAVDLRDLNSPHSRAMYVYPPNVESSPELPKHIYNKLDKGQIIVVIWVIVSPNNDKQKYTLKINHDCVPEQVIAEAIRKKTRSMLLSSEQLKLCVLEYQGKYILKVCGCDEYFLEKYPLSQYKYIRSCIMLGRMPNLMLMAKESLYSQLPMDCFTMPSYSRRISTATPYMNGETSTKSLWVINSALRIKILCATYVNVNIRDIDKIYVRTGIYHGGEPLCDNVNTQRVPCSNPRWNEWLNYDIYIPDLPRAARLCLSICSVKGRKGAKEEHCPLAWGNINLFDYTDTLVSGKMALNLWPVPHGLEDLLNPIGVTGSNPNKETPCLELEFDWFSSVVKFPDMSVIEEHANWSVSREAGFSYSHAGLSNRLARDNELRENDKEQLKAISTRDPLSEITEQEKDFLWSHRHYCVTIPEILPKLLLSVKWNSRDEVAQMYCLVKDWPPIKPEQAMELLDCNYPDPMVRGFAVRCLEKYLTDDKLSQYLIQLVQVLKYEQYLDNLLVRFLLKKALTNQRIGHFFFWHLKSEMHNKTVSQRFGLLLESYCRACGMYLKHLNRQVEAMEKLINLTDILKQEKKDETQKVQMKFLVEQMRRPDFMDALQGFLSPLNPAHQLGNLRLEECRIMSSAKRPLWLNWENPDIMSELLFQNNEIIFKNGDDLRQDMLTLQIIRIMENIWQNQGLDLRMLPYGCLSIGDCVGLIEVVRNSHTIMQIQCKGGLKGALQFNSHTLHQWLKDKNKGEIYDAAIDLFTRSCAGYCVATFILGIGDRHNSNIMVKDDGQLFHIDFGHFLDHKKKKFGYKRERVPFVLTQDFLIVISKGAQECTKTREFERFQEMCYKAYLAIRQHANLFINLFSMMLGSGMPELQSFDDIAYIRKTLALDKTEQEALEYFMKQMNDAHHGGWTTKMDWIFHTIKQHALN
Chain of PIK3CD (Human) (O00329 whole entry, looked up): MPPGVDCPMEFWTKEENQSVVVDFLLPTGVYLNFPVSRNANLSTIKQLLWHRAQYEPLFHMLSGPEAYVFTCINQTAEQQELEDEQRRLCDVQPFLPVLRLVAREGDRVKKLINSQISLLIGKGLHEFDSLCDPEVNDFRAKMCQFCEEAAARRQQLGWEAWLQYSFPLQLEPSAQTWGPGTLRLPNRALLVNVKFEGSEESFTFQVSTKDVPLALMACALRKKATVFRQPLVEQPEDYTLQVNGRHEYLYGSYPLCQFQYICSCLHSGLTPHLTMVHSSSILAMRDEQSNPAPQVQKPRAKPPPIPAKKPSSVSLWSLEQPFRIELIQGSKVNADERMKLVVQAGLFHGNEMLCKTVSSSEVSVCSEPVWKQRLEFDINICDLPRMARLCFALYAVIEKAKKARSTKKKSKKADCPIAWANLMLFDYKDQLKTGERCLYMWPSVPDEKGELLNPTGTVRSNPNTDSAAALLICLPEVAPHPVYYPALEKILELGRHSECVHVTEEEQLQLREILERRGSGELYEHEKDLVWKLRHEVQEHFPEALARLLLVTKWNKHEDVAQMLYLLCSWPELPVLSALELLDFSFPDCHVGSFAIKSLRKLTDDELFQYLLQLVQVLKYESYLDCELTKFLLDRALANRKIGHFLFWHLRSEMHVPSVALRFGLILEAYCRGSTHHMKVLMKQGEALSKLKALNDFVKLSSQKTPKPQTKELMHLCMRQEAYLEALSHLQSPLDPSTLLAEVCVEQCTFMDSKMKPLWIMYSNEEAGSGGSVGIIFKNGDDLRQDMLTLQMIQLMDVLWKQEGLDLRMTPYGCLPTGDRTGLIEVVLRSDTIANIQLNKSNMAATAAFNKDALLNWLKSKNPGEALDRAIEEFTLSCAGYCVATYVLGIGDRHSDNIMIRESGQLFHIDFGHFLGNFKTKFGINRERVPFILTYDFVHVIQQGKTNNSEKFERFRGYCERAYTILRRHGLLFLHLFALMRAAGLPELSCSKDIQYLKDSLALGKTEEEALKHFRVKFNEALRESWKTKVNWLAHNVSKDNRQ

Row | IC50 [1] | IC50 [2] | IC50 [3] | Compound
1 | 100 to 1000 nM | – | – | CSc1nc2ccccc2n1-c1nc(Nc2cccnc2)nc(N2CCOCC2)n1
2 | < 100 nM | < 100 nM | 100 to 1000 nM | Cn1cc(Nc2nc(N3CCOCC3)nc(-n3c(C(F)F)nc4ccccc43)n2)cn1
3 | < 100 nM | < 100 nM | – | COc1cc(N)cc2c1nc(C(F)F)n2-c1nc(-c2cccnc2)cc(N2CCOCC2)n1
4 | 100 to 1000 nM | 100 to 1000 nM | – | FC(F)c1nc2ccccc2n1-c1nc(Nc2cnc3ccccc3c2)nc(N2CCOCC2)n1
5 | < 100 nM | < 100 nM | 100 to 1000 nM | CNc1ccc(Nc2nc(N3CCOCC3)nc(-n3c(C(F)F)nc4c(OC)cccc43)n2)cn1
6 | < 100 nM | < 100 nM | 100 to 1000 nM | FC(F)c1nc2ccccc2n1-c1nc(Nc2cccnn2)nc(N2CCOCC2)n1
7 | < 100 nM | < 100 nM | < 100 nM | COc1cccc2c1nc(C(F)F)n2-c1nc(N2CCOCC2)nc(N(C)c2cccnc2)n1
8 | < 100 nM | < 100 nM | – | COc1cccc2c1nc(C(F)F)n2-c1nc(Nc2cnc(Cl)nc2)nc(N2CCOCC2)n1
9 | 100 to 1000 nM | 100 to 1000 nM | – | FC(F)c1nc2ccccc2n1-c1nc(-c2cccnc2)cc(N2CCOCC2)n1
10 | < 100 nM | 100 to 1000 nM | < 100 nM | FC(F)c1nc2ccccc2n1-c1nc(NCc2ccccc2)nc(N2CCOCC2)n1
11 | – | 100 to 1000 nM | – | FC(F)c1nc2ccccc2n1-c1nc(Oc2cccnc2)nc(N2CCOCC2)n1
12 | < 100 nM | < 100 nM | – | FC(F)c1nc2ccccc2n1-c1nc(Nc2ccncn2)nc(N2CCOCC2)n1
13 | < 100 nM | < 100 nM | – | FC(F)c1nc2ccccc2n1-c1nc(Nc2ccccn2)nc(N2CCOCC2)n1
14 | < 100 nM | < 100 nM | < 100 nM | COc1ccc(Nc2nc(N3CCOCC3)nc(-n3c(C(F)F)nc4c(OC)cccc43)n2)cn1
15 | 100 to 1000 nM | 100 to 1000 nM | 100 to 1000 nM | CN(c1ccccc1)c1nc(N2CCOCC2)nc(-n2c(C(F)F)nc3ccccc32)n1
16 | < 100 nM | < 100 nM | – | COc1cccc2c1nc(C(F)F)n2-c1nc(N2CCOCC2)nc(-n2cccn2)n1
17 | < 100 nM | < 100 nM | 100 to 1000 nM | COc1ccc(Nc2nc(N3CCOCC3)nc(-n3c(C(F)F)nc4c(OC)cccc43)n2)nn1
18 | < 100 nM | < 100 nM | – | COc1cccc2c1nc(C(F)F)n2-c1nc(-c2cccnc2)cc(N2CCOCC2)n1
19 | < 100 nM | < 100 nM | – | COc1cccc2c1nc(C(F)F)n2-c1nc(Nc2cnc(N(C)CCN(C)C)nc2)nc(N2CCOCC2)n1

Row | IC50 [1] | IC50 [2] | IC50 [3] | Compound
20 | < 100 nM | < 100 nM | – | COc1cc(N)cc2c1nc(C(F)F)n2-c1nc(-c2cn[nH]c2)nc(N2CCOCC2)n1
21 | 100 to 1000 nM | < 100 nM | – | COc1ncc(-c2cc(N3CCOCC3)nc(-n3c(C(F)F)nc4c(OC)cccc43)n2)cn1
22 | < 100 nM | < 100 nM | 100 to 1000 nM | FC(F)c1nc2ccccc2n1-c1nc(Nc2ccncc2)nc(N2CCOCC2)n1
23 | < 100 nM | < 100 nM | – | COc1cc(N)cc2c1nc(C(F)F)n2-c1nc(N2CCOCC2)nc(-n2cccn2)n1
24 | < 100 nM | < 100 nM | – | COc1cccc2c1nc(C(F)F)n2-c1nc(N2CCOCC2)c2ncn(-c3cncnc3)c2n1
25 | < 100 nM | < 100 nM | – | COc1cccc2c1nc(C(F)F)n2-c1nc(N2CCOCC2)nc(N(C)c2cncnc2)n1
26 | < 100 nM | – | 100 to 1000 nM | CN(Cc1ccccc1)c1nc(N2CCOCC2)nc(-n2c(C(F)F)nc3ccccc32)n1
27 | < 100 nM | < 100 nM | 100 to 1000 nM | COc1cc(Nc2nc(N3CCOCC3)nc(-n3c(C(F)F)nc4c(OC)cccc43)n2)ncn1
28 | < 100 nM | < 100 nM | 100 to 1000 nM | FC(F)c1nc2ccccc2n1-c1nc(Nc2cncnc2)nc(N2CCOCC2)n1
29 | 100 to 1000 nM | 100 to 1000 nM | – | FC(F)c1nc2ccccc2n1-c1nc(-c2cncnc2)cc(N2CCOCC2)n1
30 | < 100 nM | < 100 nM | 100 to 1000 nM | COc1ncc(Nc2nc(N3CCOCC3)nc(-n3c(C(F)F)nc4c(OC)cccc43)n2)cn1
31 | 100 to 1000 nM | < 100 nM | – | COc1cccc2c1nc(C(F)F)n2-c1nc(-c2cncnc2)cc(N2CCOCC2)n1
32 | – | 100 to 1000 nM | – | FC(F)c1nc2ccccc2n1-c1nc(Nc2ncccn2)nc(N2CCOCC2)n1
33 | < 100 nM | < 100 nM | – | COc1cccc2c1nc(C(F)F)n2-c1nc(-c2cccnc2)nc(N2CCOCC2)n1
34 | < 100 nM | < 100 nM | 100 to 1000 nM | FC(F)c1nc2ccccc2n1-c1nc(-c2cccnc2)nc(N2CCOCC2)n1
35 | < 100 nM | < 100 nM | – | COc1cc(N)cc2c1nc(C(F)F)n2-c1nc(-c2ccn(C)n2)nc(N2CCOCC2)n1
36 | < 100 nM | < 100 nM | – | COc1cccc2c1nc(C(F)F)n2-c1nc(Nc2cnc(N(C)CCCN(C)C)nc2)nc(N2CCOCC2)n1
37 | < 100 nM | 100 to 1000 nM | 100 to 1000 nM | CS(=O)(=O)c1nc2ccccc2n1-c1nc(Nc2cccnc2)nc(N2CCOCC2)n1
38 | < 100 nM | < 100 nM | 100 to 1000 nM | COc1ccncc1Nc1nc(N2CCOCC2)nc(-n2c(C(F)F)nc3ccccc32)n1

Row | IC50 [1] | IC50 [2] | IC50 [3] | Compound
39 | < 100 nM | < 100 nM | 100 to 1000 nM | COc1cccc2c1nc(C(F)F)n2-c1nc(Nc2cncnc2)nc(N2CCOCC2)n1
40 | < 100 nM | < 100 nM | 100 to 1000 nM | COc1cccc2c1nc(C(F)F)n2-c1nc(Nc2ccc(F)nc2)nc(N2CCOCC2)n1
41 | < 100 nM | < 100 nM | 100 to 1000 nM | COc1cccc2c1nc(C(F)F)n2-c1nc(Nc2ccncn2)nc(N2CCOCC2)n1
42 | < 100 nM | < 100 nM | < 100 nM | FC(F)c1nc2ccccc2n1-c1nc(Nc2cccnc2)nc(N2CCOCC2)n1
43 | < 100 nM | < 100 nM | 100 to 1000 nM | COc1cccc2c1nc(C(F)F)n2-c1nc(Nc2ccc(N)nc2)nc(N2CCOCC2)n1
44 | < 100 nM | < 100 nM | – | FC(F)c1nc2ccccc2n1-c1nc(Nc2cnccn2)nc(N2CCOCC2)n1
45 | < 100 nM | < 100 nM | 100 to 1000 nM | COc1ccncc1Nc1nc(N2CCOCC2)nc(-n2c(C(F)F)nc3c(OC)cccc32)n1
46 | < 100 nM | < 100 nM | 100 to 1000 nM | COc1cccc2c1nc(C(F)F)n2-c1nc(Nc2cccnn2)nc(N2CCOCC2)n1
47 | < 100 nM | < 100 nM | 100 to 1000 nM | COc1cccc2c1nc(C(F)F)n2-c1nc(Nc2ccc(N(C)C)nc2)nc(N2CCOCC2)n1
48 | < 100 nM | < 100 nM | < 100 nM | FC(F)c1nc2ccccc2n1-c1nc(NCc2ccccn2)nc(N2CCOCC2)n1
49 | < 100 nM | 100 to 1000 nM | 100 to 1000 nM | FC(F)c1nc2ccccc2n1-c1nc(Nc2ccccc2)nc(N2CCOCC2)n1
50 | < 100 nM | < 100 nM | 100 to 1000 nM | COc1cccc2c1nc(C(F)F)n2-c1nc(Nc2ccc(Cl)nc2)nc(N2CCOCC2)n1
51 | < 100 nM | < 100 nM | 100 to 1000 nM | COc1cccc2c1nc(C(F)F)n2-c1nc(Nc2cccnc2)nc(N2CCOCC2)n1
52 | < 100 nM | < 100 nM | – | COc1cccc2c1nc(C(F)F)n2-c1nc(-c2ccc(N)nc2)nc(N2CCOCC2)n1
53 | – | > 10000 nM | > 10000 nM | FC(F)c1nc2ccccc2n1-c1nc(Oc2ccccc2)nc(N2CCOCC2)n1
54 | < 100 nM | < 100 nM | – | CN(c1cncnc1)c1nc(N2CCOCC2)nc(-n2c(C(F)F)nc3ccccc32)n1
55 | – | > 10000 nM | > 10000 nM | FC(F)c1nc2ccccc2n1-c1nc(Sc2ccccc2)nc(N2CCOCC2)n1
56 | – | 100 to 1000 nM | – | FC(F)c1nc2ccccc2n1-c1nc(NCc2ccncc2)nc(N2CCOCC2)n1
57 | < 100 nM | 100 to 1000 nM | 100 to 1000 nM | FC(F)c1nc2ccccc2n1-c1nc(NCc2cccnc2)nc(N2CCOCC2)n1
